Literature values in patent publication US8703823B2, “Methods for treatment of migraine and symptoms thereof” (priority 2004, dated 2014).

Columns and labels:
[1] = in vivo
[2] = individuals treated with trimethobenzamide for uncontrolled vomiting

Compound	Migraine prevention / antimigraine effect [1]	Occurrence of adverse diskinesia side effects [2] [%]
COc1cc(N)c(Cl)cc1C(=O)NC1CCN(CCCOc2ccc(F)cc2)CC1OC (stereo not drawn) [cisapride]	ineffective	–
COc1cc(C(=O)NCc2ccc(OCCN(C)C)cc2)cc(OC)c1OC.Cl [trimethobenzamide, N-[p-[2-(dimethylamino)ethoxy]benzyl]-3,4,5-trimethoxybenzamide monohydrochloride]	–	< 2
CCN(CC)CCNC(=O)c1cc(Cl)c(N)cc1OC [Metoclopramide, metoclopramide]	exerted an antimigraine effect	–
